This note sets out measurements from patent US5457030A, “Method and composition for determining antimicrobial susceptibility of the majority clinically significant Gram postitive organism” (MicroScan, Inc., priority 1993, dated 1995).

SMILES strings stand for the structures. In brackets after ≈: the same amount, converted by molar mass. Read-outs that look alike come from different tables or passages of the source.

A short description of data set [1]: Redissolution of fluorogenic substrate after dehydration. Format: physicochemical. From the text: In the Sensititre™ procedure the substrates mixture consists of alanyl-7-amido-4-methylcoumarin, 4-methylumebelliferyl phosphate and 4-methylumbelliferyl nonanoate. […] Moreover, a special procedure of drying the substrate mixture on a solid carrier in combination with an emulsifying agent was the preferred method in the EP #0,09187 description. Removal of this compound from the mixture allows easy preparation and aliquoting of the fluorogenic substrate mixture. […] The current fluorogenic substrate mixture also allows for testing of a larger range of Gram positive species than previously described. Additionally, the use of the autoSCAN®-W/A allows monitoring of growth for between 31/2 and 15 hours, determination of minimum inhibitory concentration occurring only when sufficient growth has been achieved. This ensures that the minimum inhibitory concentration determinations of each isolate is determined at the optimal time.

The test system of data set [2] is Enterococcus faecalis. As to the kind of experiment: Minimum inhibitory concentration determination, Example 1 (Table 7). In kind it is cell-based. How it is done: (§1) A primary inoculum suspension of a bacterial isolate in saline-pluronic, equivalent to a 0.5 McFarland turbidity standard is prepared. The final inoculum suspension is prepared by diluting a 0.3 ml aliquot of the primary suspension in 25 ml of Rapid Pos Inoculum Broth (B1015-14, Baxter Diagnostics Inc., MicroScan Division, West Sacramento, Calif.). A 115 μl of the final inoculum is added to the growth compartment which contains dried material of fluorogenic enzyme substrates equivalent to 0.023 mM leucine-7-amido-4-methylcoumarin, 0.012 mM phenylalanine-7-amido-4-methylcoumarin and 0.058 mM methylumbelliferyl phosphate and 1.15 mM HEPES buffer at pH 7.0. The final inoculum is also added to a number of compartments containing dried material identical to that in the growth well and different concentrations of an antimicrobial agent. An aliquot of the final inoculum is also added to a compartment, containing only dried HEPES buffer, acting as a control. The inoculated multicompartment device (panel) is inserted in the autoSCAN®-W/A. The fluorescence of each compartment is measured at predetermined times and a Growth Index is calculated by dividing the fluorescence of the growth compartment by that of the negative control compartment.
(§2) If the value of the Growth Index is equal to or exceeds a specified value, the Minimum Inhibitory Concentration for every antimicrobial agent present in the multicompartment device is calculated. Otherwise the device is returned to its position and measured again at the next read time. The read times in this example are 3.5, 4.5, 5.5, 7.0, 8.0, 11.0, and 15.0 hours. For calculation of minimum inhibitory concentration, the percent fluorescence of compartments containing the different concentrations of the antimicrobial agent is calculated by subtracting from each compartment the fluorescence of the control well and dividing it by the delta fluorescence of the growth compartment, obtained by subtracting the fluorescence of the negative control compartment from the fluorescence of the growth compartment. The minimum inhibitory concentration is calculated using a mathematical model specific for each concentration range of the antimicrobial agent. Using a mathematical model based on discriminate functional analysis, the minimum inhibitory concentration of each antimicrobial agent, for the organism tested, can be determined. Utilization of a discriminate function analysis model in microbiological pattern recognition is described in S. Bascomb, Computers in Taxonomy and Systematics, p. 65-102 In T. N. Bryant and J. W. T. Wimpenny (Ed.), Computers in Microbiology, a Practical Approach (IRL Press, Oxford). In an alternative embodiment the minimum inhibitory concentration for each antimicrobial agent for the organism tested can be determined by a breakpoint or threshold method or linear regression analysis. J. McKie, et al., Antimicrobial Agents and Chemotherapy (1980) v. 17, 813-823.
(§3) In Example 1, the growth of Enterococcus faecalis in wells containing specified amounts of antimicrobial agents is estimated by measurement of fluorescence. In Table 6, the percent fluorescence at different concentrations of antimicrobial agents is reported. For example, 0.12, 0.25, 0.5, 1, 2, 4 and 8 μg/mL of ampicillin (Am) were present in the microdilution wells.
In Table 7, the minimum inhibitory concentration for Example 1 are reported.

Data set [3] relates to Enterococcus faecalis. As to the kind of experiment: Percent fluorescence (growth) in wells containing antimicrobial agents, Example 1 (Table 6). In kind it is cell-based. The note with it: Enterococcus faecalis, read-out: percent fluorescence; for activity at 2 µg/mL: 2 μg/mL; for activity at 4 µg/mL: 4 μg/mL; for activity at 8 µg/mL: 8 μg/mL. How it is done: as §1
^FL growth - ^FL control
as §2, §3
The numbers 105, 105, 67, 7, 6, 5, 6 are percent fluorescence values as calculated in […]. These figures are used to determine susceptibility according to the methods discussed on pages 12 and 13.

Where [4] appears, read: Table 7, Enterococcus faecalis, Example 1, read-out: minimum inhibitory concentration.

As to `CCCCCCCCC(=O)Oc1ccc2c(C)cc(=O)oc2c1` [4-methylumbelliferyl nonanoate], in data set [1], the redissolution after dehydration entry is recorded as “difficult to redissolve evenly after dehydration”.
As for `Cc1nnc(SCC2=C(C(=O)O)N3C(=O)[C@@H](NC(=O)Cn4cnnn4)[C@H]3SC2)s1` [Cefazolin], in the data set with Enterococcus faecalis [2] (Enterococcus faecalis, Table 7, Example 1, read-out: concentration at which organism was found to be resistant), the MIC was more than 16 µg/mL. The MIC with Enterococcus faecalis [2] (setting [4]) is more than 16 µg/mL. Also, in the data set with Enterococcus faecalis [3], the activity at 2 µg/mL was determined as 105%, the activity at 4 µg/mL is 102% and the activity at 8 µg/mL amounted to 104%. In addition, in the data set on Enterococcus faecalis [3] (16 μg/mL), the activity at 16 µg/mL came to 100%.
Take `CC1(C)S[C@@H]2[C@H](NC(=O)[C@H](N)c3ccccc3)C(=O)N2[C@H]1C(=O)O` [Ampicillin]: in the data set with Enterococcus faecalis [2] (Enterococcus faecalis, Table 7, Example 1, read-out: concentration at which organism was found to be susceptible), the MIC was 0.5 µg/mL (≈ 1.43 µM). Besides, in the data set on Enterococcus faecalis [2] (setting [4]), the MIC worked out at 0.5 µg/mL (≈ 1.43 µM). Besides, the activity at 1 µg/mL with Enterococcus faecalis [3] (1 μg/mL) was found to be 7%. Also, in the data set on Enterococcus faecalis [3], the activity at 2 µg/mL stood at 6%, the activity at 4 µg/mL was 5% and the activity at 8 µg/mL was found to be 6%. For the same compound, the activity at 0.12 µg/mL with Enterococcus faecalis [3] (.12 μg/mL) was found to be 105%. Besides, the activity at 0.25 µg/mL in the data set on Enterococcus faecalis [3] (.25 μg/mL) came out at 105%. For the same compound, the activity at 0.5 µg/mL in the data set on Enterococcus faecalis [3] (.5 μg/mL) stood at 67%.
